For seven compounds, carcinogen call results are on record in PubChem BioAssay AID1259411 (Chemical Carcinogenesis Research Information System (CCRIS), 2018).

The structures appear in SMILES notation. The source made the active and inactive calls. No rule for the calls is given here.

This data set concerns rodent carcinogenicity bioassays, tumor incidence. Kind of data set: CCRIS carcinogenicity studies. Put shortly: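 Archive of carcinogenicity, mutagenicity, tumor promotion and tumor inhibition results drawn from journals, NCI reports and other sources, expert-reviewed; covers 1985-2011 and is no longer updated.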

Turning to `CCC(=O)C(CC(C)N(C)C)(c1ccccc1)c1ccccc1` (stereo not drawn), the carcinogen call (Species: MOUSE, Strain/Sex: B6C3F1/FEMALE, Route: ORAL, Dose: 0, 15, 60 MG/KG IN DIET FOR DURATION OF STUDY (STUDY DURATION: 108 WK), Dose: 0, 15, 60 MG/KG IN DIET FOR DURATION OF STUDY (STUDY DURATION: 108 WK)) was “inactive; negative”; the carcinogen call (Species: MOUSE, Strain/Sex: B6C3F1/MALE, Route: ORAL, Dose: 0, 15, 60 MG/KG IN DIET FOR DURATION OF STUDY (STUDY DURATION: 108 WK), Dose: 0, 15, 60 MG/KG IN DIET FOR DURATION OF STUDY (STUDY DURATION: 108 WK)) was “inactive; negative”; the carcinogen call (Species: RAT, Strain/Sex: F344/FEMALE, Route: ORAL, Dose: 0, 28, 88 MG/KG IN DIET FOR DURATION OF STUDY (STUDY DURATION: 108 WK), Dose: 0, 28, 88 MG/KG IN DIET FOR DURATION OF STUDY (STUDY DURATION: 108 WK)) is “inactive; negative”; the carcinogen call (Species: RAT, Strain/Sex: F344/MALE, Route: ORAL, Dose: 0, 16, 46 MG/KG IN DIET FOR DURATION OF STUDY (STUDY DURATION: 108 WK), Dose: 0, 16, 46 MG/KG IN DIET FOR DURATION OF STUDY (STUDY DURATION: 108 WK)) is “inactive; negative”.

On to `ClC(Cl)(Cl)Cl`, for which the carcinogen call by setting is: (Species: FISH, Strain/Sex: RAINBOW TROUT, Route: INTRAPERITONEAL, Dose: 0, 1 ML/KG AT 21 D INTERVALS FOR A TOTAL OF 7 DOSES (STUDY DURATION: 6 MO)) “inactive; negative”; (Species: MOUSE, Route: ORAL, GAVAGE, Tumor Site: Type of Lesion: LIVER: HEPATOMA, HEPATOCELLULAR CARCINOMA) “active; positive”; (Species: Mouse, Strain/Sex: BDF1/Female (50/group), Route: Inhalation, Dose: 0, 5, 25, 125 ppm (v/v) 6 hr/d, 5 d/wk for 104 wk, Dose: 0, 5, 25, 125 ppm (v/v) 6 hr/d, 5 d/wk for 104 wk, Tumor Site: Type of Lesion: Liver: hepatocellular carcinoma (2/50; 1/49; 33/50; 48/49), hepatocellular adenoma (2/50; 8/49; 17/50; 5/49). Adrenal Gl, Tumor Site: Type of Lesion: Liver: hepatocellular carcinoma (2/50; 1/49; 33/50; 48/49), hepatocellular adenoma (2/50; 8/49; 17/50; 5/49). Adrenal Gl) “active; positive”; (Species: Mouse, Strain/Sex: BDF1/Male (50/group), Route: Inhalation, Dose: 0, 5, 25, 125 ppm (v/v) 6 hr/d, 5 d/wk for 104 wk, Dose: 0, 5, 25, 125 ppm (v/v) 6 hr/d, 5 d/wk for 104 wk, Tumor Site: Type of Lesion: Liver: hepatocellular carcinoma (17/50; 12/50; 44/50; 47/50), hepatocellular adenoma (9/50; 10/50; 27/50; 16/50). Adrena, Tumor Site: Type of Lesion: Liver: hepatocellular carcinoma (17/50; 12/50; 44/50; 47/50), hepatocellular adenoma (9/50; 10/50; 27/50; 16/50). Adrena) “active; positive (dose related metastasis of liver tumors to lung)”; (Species: RAT, Route: SUBCUTANEOUS, Tumor Site: Type of Lesion: LIVER: HEPATOCELLULAR CARCINOMA) “active; positive”; (Species: Rat, Strain/Sex: F344/Female (50/group), Route: Inhalation, Dose: 0, 5, 25, 125 ppm (v/v) 6 hr/d, 5 d/wk for 104 wk, Dose: 0, 5, 25, 125 ppm (v/v) 6 hr/d, 5 d/wk for 104 wk, Tumor Site: Type of Lesion: Liver: hepatocellular carcinoma (0/50; 0/50; 3/50; 15/50), hepatocellular adenoma (0/50; 0/50; 40/50), Tumor Site: Type of Lesion: Liver: hepatocellular carcinoma (0/50; 0/50; 3/50; 15/50), hepatocellular adenoma (0/50; 0/50; 40/50)) “active; positive”. The carcinogen call (Species: Rat, Strain/Sex: F344/Male (50/group), Route: Inhalation, Dose: 0, 5, 25, 125 ppm (v/v) 6 hr/d, 5 d/wk for 104 wk, Dose: 0, 5, 25, 125 ppm (v/v) 6 hr/d, 5 d/wk for 104 wk, Tumor Site: Type of Lesion: Liver: hepatocellular carcinoma (1/50; 0/50; 32/50), hepatocellular adenoma (0/50; 1/50; 21/50), Tumor Site: Type of Lesion: Liver: hepatocellular carcinoma (1/50; 0/50; 32/50), hepatocellular adenoma (0/50; 1/50; 21/50)) was “active; positive”.

With `Nc1cc([N+](=O)[O-])ccc1C(=O)O`, the carcinogen call by setting is: (Species: MOUSE, Strain/Sex: B6C3F1/FEMALE, Route: ORAL, Dose: 0, 0.46, 1.0% OF DIET, TWA, Dose: 0, 0.46, 1.0% OF DIET, TWA) “inactive; negative”; (Species: MOUSE, Strain/Sex: B6C3F1/MALE, Route: ORAL, Dose: 0, 0.46, 1.0% OF DIET, TWA, Dose: 0, 0.46, 1.0% OF DIET, TWA) “inactive; negative”; (Species: RAT, Strain/Sex: F344/FEMALE, Route: ORAL, Dose: 0, 0.46, 1.5% OF DIET, TWA, Dose: 0, 0.46, 1.5% OF DIET, TWA) “inactive; negative”; (Species: RAT, Strain/Sex: F344/MALE, Route: ORAL, Dose: 0, 0.46, 1.5% OF DIET, TWA, Dose: 0, 0.46, 1.5% OF DIET, TWA) “inactive; negative”.

For the compound `Oc1ccccc1`, the carcinogen call was “inactive; negative” (Species: MOUSE, Strain/Sex: B6C3F1/FEMALE, Route: ORAL, Dose: 0, 2500, 5000 PPM IN DIET, Dose: 0, 2500, 5000 PPM IN DIET); “inactive; negative” (Species: MOUSE, Strain/Sex: B6C3F1/MALE, Route: ORAL, Dose: 0, 2500, 5000 PPM IN DIET, Dose: 0, 2500, 5000 PPM IN DIET); “inactive; negative” (Species: RAT, Strain/Sex: F344/FEMALE, Route: ORAL, Dose: 0, 2500, 5000 PPM IN DIET, Dose: 0, 2500, 5000 PPM IN DIET); “inactive; negative” (Species: RAT, Strain/Sex: F344/MALE, Route: ORAL, Dose: 0, 2500, 5000 PPM IN DIET, Dose: 0, 2500, 5000 PPM IN DIET).

On to `COc1c(O)c2c(c3cc(C(=O)N4CCc5c4c(O)c(OC)c4[nH]c(C(=O)N6C[C@H]7C[C@@]78C6=CC(=O)c6[nH]cc(C)c68)cc54)[nH]c13)CCN2C(N)=O`, for which the carcinogen call (Species: MOUSE, Strain/Sex: STRAIN-A/MALE,FEMALE, Route: INTRAVENOUS, Dose: 0, 2, 4, 8 UG/KG ONCE (STUDY DURATION: 24 WK), Dose: 0, 2, 4, 8 UG/KG ONCE (STUDY DURATION: 24 WK), Tumor Site: Type of Lesion: LUNG: ADENOMA) was “active; positive”.

In the case of `CCBr`, the carcinogen call by setting is: (Species: MOUSE, Strain/Sex: B6C3F1/FEMALE, Route: INHALATION, Dose: 0, 100, 200, 400 PPM 6 HR/D 5 D/WK FOR 103 WK (STUDY DURATION: 105 WK), Dose: 0, 100, 200, 400 PPM 6 HR/D 5 D/WK FOR 103 WK (STUDY DURATION: 105 WK), Tumor Site: Type of Lesion: UTERUS: ADENOMA, ADENOCARCINOMA, ADENOMA OR ADENOCARCINOMA, ADENOCARCINOMA OR SQUAMOUS CELL CARCINOMA) “active; positive”; (Species: MOUSE, Strain/Sex: B6C3F1/MALE, Route: INHALATION, Dose: 0, 100, 200, 400 PPM 6 HR/D 5 D/WK FOR 104 WK (STUDY DURATION: 106 WK), Dose: 0, 100, 200, 400 PPM 6 HR/D 5 D/WK FOR 104 WK (STUDY DURATION: 106 WK), Tumor Site: Type of Lesion: LUNG: ALVEOLAR/BRONCHIOLAR ADENOMA OR CARCINOMA) “equivocal”; (Species: RAT, Strain/Sex: F344/FEMALE, Route: INHALATION, Dose: 0, 100, 200, 400 PPM 6 HR/D 5 D/WK FOR 104 WK (STUDY DURATION: 106 WK), Dose: 0, 100, 200, 400 PPM 6 HR/D 5 D/WK FOR 104 WK (STUDY DURATION: 106 WK), Tumor Site: Type of Lesion: BRAIN: GLIOMA, LUNG: ALVEOLAR/BRONCHIOLAR ADENOMA) “equivocal”; (Species: RAT, Strain/Sex: F344/MALE, Route: INHALATION, Dose: 0, 100, 200, 400 PPM 6 HR/D 5 D/WK FOR 104 WK (STUDY DURATION: 106 WK), Dose: 0, 100, 200, 400 PPM 6 HR/D 5 D/WK FOR 104 WK (STUDY DURATION: 106 WK), Tumor Site: Type of Lesion: ADRENAL MEDULLA: PHEOCHROMOCYTOMA, PHEOCHROMOCYTOMA OR MALIGNANT PHEOCHROMOCYTOMA) “active; positive”.

`C/C=C/C=O`: the carcinogen call is, setting by setting: (Species: MOUSE, Strain/Sex: B6C3F1/FEMALE, Route: INTRAPERITONEAL, Dose: 0, 1500 NMOL TOTAL DOSE, 1/3 AND 2/3 OF THE TOTAL DOSE ADMINISTERED AT 8 AND 15 DAYS OF AGE RESPECTIVELY, ANIMALS TERMIN) “inactive; negative”; (Species: MOUSE, Strain/Sex: B6C3F1/FEMALE, Route: INTRAPERITONEAL, Dose: 0, 3000 NMOL TOTAL DOSE, 1/3 AND 2/3 OF THE TOTAL DOSE ADMINISTERED AT 8 AND 15 DAYS OF AGE RESPECTIVELY, ANIMALS TERMIN) “inactive; negative”; (Species: MOUSE, Strain/Sex: B6C3F1/MALE, Route: INTRAPERITONEAL, Dose: 0, 1500 NMOL TOTAL DOSE, 1/3 AND 2/3 OF THE TOTAL DOSE ADMINISTERED AT 8 AND 15 DAYS OF AGE RESPECTIVELY, ANIMALS TERMIN) “inactive; negative”; (Species: MOUSE, Strain/Sex: B6C3F1/MALE, Route: INTRAPERITONEAL, Dose: 0, 3000 NMOL TOTAL DOSE, 1/3 AND 2/3 OF THE TOTAL DOSE ADMINISTERED AT 8 AND 15 DAYS OF AGE RESPECTIVELY, ANIMALS TERMIN) “inactive; negative”.
